The record followed here is patent US20210238173A1, “MITOGEN-ACTIVATED PROTEIN KINASE KINASE 7 INHIBITORS” (Yeda Research and Development Co. Ltd., priority 2018, published 2021).

The test system of one test is p-cJun in HEK293 cells. Kind of test: p-cJun inhibition in HEK293 cells. As to conditions: Homo sapiens. It is filed as cell-based. How it is done:
HEK293, Beas2B and 3T3 cells were plated 24 hours before procedure on 384 well clear bottom black flat plates (Corning) pre-coated with Fibronectin (Sigma) diluted in PBS to a concentration of 5 μg/ml 45 minutes prior to cells introduction. Cells were plated using Multidrop™ Combi reagent dispenser (Thermo Fisher Scientific). Compound, reagents and antibody dispensing as well as washes were performed with a CyBio liquid handler (Analytik). Cells were pre-incubated with a small molecule or up to 1% DMSO for 2 h before fixation. HEK293, 3T3 or Beas2B cells were treated with 0.6M/0.2M/0.2M D-Sorbitol/PBS (Sigma) for 20/40/40 min. respectively, before fixation. Media was removed and wells were immediately fixed with 150 μl per well of 3.7% formaldehyde/PBS fixing solution for 20 min. Formaldehyde was then aspired and cells were permeabilized with 150 μl of 0.5% Triton x-100/PBS solution for 10 min. After aspiration cells were washed with ice-cold methanol and stored at −20° C., for 10 min. Methanol was aspired and cells were blocked with 150 μl blocking buffer (LICOR) for 90 min. Primary antibody Phospho-SAPK/JNK T183/Y185 (CST; 9251S) was diluted 1:1000 in blocking buffer and was applied 50 μl per well, except control wells to which only blocking buffer was applied, O.N. (16 h) at 4° C. with mild shaking. […] Wells signals were analyzed with Odyssey software. […]
To rapidly assess the cellular activity (EC50) with full dose response curves of the MKK7 covalent inhibitors, according to some embodiments of the present invention, an in-cell western assay was adapted to a 384 well plate format over traditional western blot, and monitored phospho-JNK (pJNK) levels in response to osmotic shock. […] The compound's activity was assessed by pre-treating cells with either compound or DMSO for 2 hours, followed by Sorbitol stimulation. The response of pJNK, and its substrates, pc-Jun and pATF2, was measured, as well as pP38, which is a substrate of MKK4 but not MKK7, and pERK in HEK293 cells, and the results are presented in Table 5 below.

The next test deals with ABL1 (Homo sapiens, UniProt P00519). As to the kind of experiment: Kinome selectivity screen ABL1. The class given is biochemical. As to conditions: 1 μM compound. The procedure:
(§1) Kinome Selectivity Screen:
(§2) Kinase selectivity was assessed using the Life Technologies SelectScreen Kinase Profiling Service in a custom panel of 76 kinases selected to provide broad representative coverage of all kinase families. Kinase activity assays employed either the Z′-LYTE or Adapta assay technologies with ATP concentrations at or near the KM, ATP for each kinase and a test compound concentration of 1 μM.

The next test addresses AKT1 (PKB alpha) (Homo sapiens, UniProt P31749). Kind of test: Kinome selectivity screen AKT1. It is filed as biochemical. Conditions: 1 μM compound. The procedure:
as §1, §2

The target in a further test is AURKB (Aurora B) (Homo sapiens, UniProt Q96GD4). As to the kind of experiment: Kinome selectivity screen AURKB. The class given is biochemical. As to conditions: 1 μM compound. How it is done: as §1, §2
The target in a further test is CHEK1 (CHK1) (Homo sapiens, UniProt O14757). As to the kind of experiment: Kinome selectivity screen CHEK1. It is filed as biochemical. Conditions: 1 μM compound. How it is done: as §1, §2
The target of the next test is CSNK1G2 (CK1 gamma 2) (Homo sapiens, UniProt P78368). Kind of test: Kinome selectivity screen CSNK1G2. It is filed as biochemical. As to conditions: 1 μM compound. The procedure: as §1, §2
The next test has as its target CSNK2A1 (CK2 alpha 1) (Homo sapiens, UniProt P68400). As to the kind of experiment: Kinome selectivity screen CSNK2A1. It is filed as biochemical. As to conditions: 1 μM compound. How it is done:
as §1, §2

In another test the target is DYRK3 (Homo sapiens, UniProt O43781). Kind of test: Kinome selectivity screen DYRK3. It is filed as biochemical. As to conditions: 1 μM compound. How it is done: as §1, §2
The target in a further test is IKBKB (IKK beta) (Homo sapiens, UniProt O14920). Kind of test: Kinome selectivity screen IKBKB. It is filed as biochemical. Conditions: 1 μM compound. How it is done:
as §1, §2

The target of the next test is JAK3 (Homo sapiens, UniProt P52333). As to the kind of experiment: Kinome selectivity screen JAK3. It is filed as biochemical. Conditions: 1 μM compound. The procedure: as §1, §2
The next test addresses KDR (VEGFR2) (Homo sapiens, UniProt P35968). As to the kind of experiment: Kinome selectivity screen KDR. Conditions: 1 μM compound. The class given is biochemical. How it is done: as §1, §2
A further test concerns the target LRRK2 FL (Homo sapiens, UniProt Q5S007). As to the kind of experiment: Kinome selectivity screen LRRK2 FL. It is filed as biochemical. Conditions: 1 μM compound. The procedure:
as §1, §2

The target of another test is MAP2K4 (MEK4) (Homo sapiens, UniProt P45985). Kind of test: Kinome selectivity screen MAP2K4. It is filed as biochemical. Conditions: 1 μM compound. The procedure: as §1, §2
Another test deals with MAP3K8 (COT) (Homo sapiens, UniProt P41279). Kind of test: Kinome selectivity screen MAP3K8. The class given is biochemical. Conditions: 1 μM compound. How it is done: as §1, §2
Another test deals with MAPKAPK2 (Homo sapiens, UniProt P49137). As to the kind of experiment: Kinome selectivity screen MAPKAPK2. The class given is biochemical. As to conditions: 1 μM compound. How it is done:
as §1, §2

The target of a further test is MARK1 (MARK) (Homo sapiens, UniProt Q9P0L2). As to the kind of experiment: Kinome selectivity screen MARK1. The class given is biochemical. Conditions: 1 μM compound. The procedure: as §1, §2
The target in another test is PDGFRB (PDGFR beta) (Homo sapiens, UniProt P09619). Kind of test: Kinome selectivity screen PDGFRB. The class given is biochemical. As to conditions: 1 μM compound. The procedure:
as §1, §2

The next test addresses PHKG2 (Homo sapiens, UniProt P15735). As to the kind of experiment: Kinome selectivity screen PHKG2. The class given is biochemical. Conditions: 1 μM compound. The procedure:
as §1, §2

The next test has as its target PRKACA (PKA) (Homo sapiens, UniProt P17612). As to the kind of experiment: Kinome selectivity screen PRKACA. The class given is biochemical. As to conditions: 1 μM compound. The procedure:
as §1, §2

The target of a further test is RPS6KA3 (RSK2) (Homo sapiens, UniProt P51812). As to the kind of experiment: Kinome selectivity screen RPS6KA3. The class given is biochemical. Conditions: 1 μM compound. The procedure: as §1, §2
A further test deals with SYK (Homo sapiens, UniProt P43405). Kind of test: Kinome selectivity screen SYK. It is filed as biochemical. Conditions: 1 μM compound. The procedure:
as §1, §2

The target in a further test is TAOK2 (TAO1) (Homo sapiens, UniProt Q9UL54). As to the kind of experiment: Kinome selectivity screen TAOK2. It is filed as biochemical. Conditions: 1 μM compound. The procedure: as §1, §2
Sequence of TAOK2 (TAO1) (Q9UL54 whole entry): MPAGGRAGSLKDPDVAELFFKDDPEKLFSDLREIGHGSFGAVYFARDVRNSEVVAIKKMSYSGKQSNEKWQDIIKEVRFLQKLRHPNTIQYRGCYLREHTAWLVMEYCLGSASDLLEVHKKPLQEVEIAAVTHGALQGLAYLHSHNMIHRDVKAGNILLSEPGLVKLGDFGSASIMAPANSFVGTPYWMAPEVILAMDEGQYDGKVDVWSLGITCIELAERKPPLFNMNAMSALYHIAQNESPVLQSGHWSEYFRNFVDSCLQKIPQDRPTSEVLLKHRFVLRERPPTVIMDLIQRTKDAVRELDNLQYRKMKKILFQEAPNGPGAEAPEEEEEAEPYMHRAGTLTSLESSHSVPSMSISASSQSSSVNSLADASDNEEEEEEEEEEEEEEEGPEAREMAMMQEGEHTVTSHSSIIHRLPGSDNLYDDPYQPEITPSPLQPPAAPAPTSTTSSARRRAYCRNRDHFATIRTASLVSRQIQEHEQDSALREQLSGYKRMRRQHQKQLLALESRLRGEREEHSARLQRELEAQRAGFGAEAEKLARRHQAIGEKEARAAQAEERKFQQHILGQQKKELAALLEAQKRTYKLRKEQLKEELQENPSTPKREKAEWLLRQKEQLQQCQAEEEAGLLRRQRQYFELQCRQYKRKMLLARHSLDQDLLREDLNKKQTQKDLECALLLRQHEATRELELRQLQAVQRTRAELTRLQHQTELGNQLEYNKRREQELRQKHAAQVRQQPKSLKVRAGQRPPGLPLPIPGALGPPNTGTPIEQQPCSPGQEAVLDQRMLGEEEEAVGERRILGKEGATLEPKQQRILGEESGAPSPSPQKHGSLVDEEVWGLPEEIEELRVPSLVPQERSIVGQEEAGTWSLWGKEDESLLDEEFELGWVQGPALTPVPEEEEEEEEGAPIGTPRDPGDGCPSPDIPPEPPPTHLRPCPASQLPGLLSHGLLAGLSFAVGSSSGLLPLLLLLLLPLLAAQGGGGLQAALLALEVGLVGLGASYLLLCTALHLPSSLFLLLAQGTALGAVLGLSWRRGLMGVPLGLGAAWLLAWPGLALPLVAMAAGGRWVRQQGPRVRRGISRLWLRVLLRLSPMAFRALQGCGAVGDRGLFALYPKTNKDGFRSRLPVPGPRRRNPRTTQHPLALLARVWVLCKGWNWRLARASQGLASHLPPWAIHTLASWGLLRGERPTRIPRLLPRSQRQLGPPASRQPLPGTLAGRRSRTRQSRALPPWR

Sequence of AKT1 (PKB alpha) (P31749 whole entry): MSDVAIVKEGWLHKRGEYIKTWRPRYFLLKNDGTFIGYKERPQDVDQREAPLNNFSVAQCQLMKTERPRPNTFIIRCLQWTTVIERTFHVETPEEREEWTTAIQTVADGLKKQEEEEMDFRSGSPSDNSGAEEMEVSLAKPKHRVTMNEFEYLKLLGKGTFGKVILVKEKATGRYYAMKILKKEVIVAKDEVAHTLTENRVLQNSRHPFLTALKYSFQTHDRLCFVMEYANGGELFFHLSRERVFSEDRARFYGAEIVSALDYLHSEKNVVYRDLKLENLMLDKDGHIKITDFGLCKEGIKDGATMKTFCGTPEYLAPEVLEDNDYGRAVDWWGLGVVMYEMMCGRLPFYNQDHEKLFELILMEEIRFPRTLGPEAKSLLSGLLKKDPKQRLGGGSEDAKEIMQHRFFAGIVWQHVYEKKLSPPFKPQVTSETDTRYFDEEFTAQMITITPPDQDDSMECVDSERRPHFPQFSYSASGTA
Sequence of MAP2K4 (MEK4) (P45985 whole entry): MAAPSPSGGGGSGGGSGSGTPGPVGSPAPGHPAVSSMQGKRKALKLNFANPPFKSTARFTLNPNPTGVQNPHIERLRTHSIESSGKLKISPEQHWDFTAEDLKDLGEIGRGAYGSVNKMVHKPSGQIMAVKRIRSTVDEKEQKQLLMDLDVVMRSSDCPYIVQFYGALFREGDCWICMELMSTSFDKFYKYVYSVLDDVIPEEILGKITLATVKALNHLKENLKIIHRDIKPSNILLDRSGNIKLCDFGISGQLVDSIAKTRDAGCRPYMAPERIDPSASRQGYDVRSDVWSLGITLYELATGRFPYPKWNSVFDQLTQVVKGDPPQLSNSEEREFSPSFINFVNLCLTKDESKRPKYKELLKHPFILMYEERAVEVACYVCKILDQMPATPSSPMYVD
Sequence of DYRK3 (O43781 whole entry): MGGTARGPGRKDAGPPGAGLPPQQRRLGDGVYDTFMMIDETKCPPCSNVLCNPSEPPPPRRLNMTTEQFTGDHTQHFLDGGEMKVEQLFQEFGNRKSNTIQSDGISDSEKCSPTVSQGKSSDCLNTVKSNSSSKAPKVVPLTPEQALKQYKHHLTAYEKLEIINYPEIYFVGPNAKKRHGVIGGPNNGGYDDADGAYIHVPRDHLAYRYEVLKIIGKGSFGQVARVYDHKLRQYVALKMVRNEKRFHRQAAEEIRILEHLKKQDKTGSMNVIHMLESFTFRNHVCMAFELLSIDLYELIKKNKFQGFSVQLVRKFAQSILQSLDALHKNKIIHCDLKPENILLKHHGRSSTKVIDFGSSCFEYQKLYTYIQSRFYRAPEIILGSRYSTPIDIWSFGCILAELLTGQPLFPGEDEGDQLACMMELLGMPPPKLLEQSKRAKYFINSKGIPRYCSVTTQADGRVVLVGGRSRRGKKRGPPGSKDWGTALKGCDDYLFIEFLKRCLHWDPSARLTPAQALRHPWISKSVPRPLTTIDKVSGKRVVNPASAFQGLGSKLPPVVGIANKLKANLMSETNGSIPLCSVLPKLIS
Sequence of CHEK1 (CHK1) (O14757 whole entry): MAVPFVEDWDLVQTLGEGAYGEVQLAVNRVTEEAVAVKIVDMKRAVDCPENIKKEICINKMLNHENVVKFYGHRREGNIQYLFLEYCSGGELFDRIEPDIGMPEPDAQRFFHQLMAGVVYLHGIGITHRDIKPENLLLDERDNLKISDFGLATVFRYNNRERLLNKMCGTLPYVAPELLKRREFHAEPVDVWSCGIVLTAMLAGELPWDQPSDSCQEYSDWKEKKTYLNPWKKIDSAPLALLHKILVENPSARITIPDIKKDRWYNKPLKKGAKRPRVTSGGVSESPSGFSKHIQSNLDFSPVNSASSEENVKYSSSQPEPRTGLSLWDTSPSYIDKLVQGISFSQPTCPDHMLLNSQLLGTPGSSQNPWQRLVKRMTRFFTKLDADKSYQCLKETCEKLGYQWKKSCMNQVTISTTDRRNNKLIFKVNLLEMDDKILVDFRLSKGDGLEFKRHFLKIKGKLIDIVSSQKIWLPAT
Sequence of MARK1 (MARK) (Q9P0L2 whole entry): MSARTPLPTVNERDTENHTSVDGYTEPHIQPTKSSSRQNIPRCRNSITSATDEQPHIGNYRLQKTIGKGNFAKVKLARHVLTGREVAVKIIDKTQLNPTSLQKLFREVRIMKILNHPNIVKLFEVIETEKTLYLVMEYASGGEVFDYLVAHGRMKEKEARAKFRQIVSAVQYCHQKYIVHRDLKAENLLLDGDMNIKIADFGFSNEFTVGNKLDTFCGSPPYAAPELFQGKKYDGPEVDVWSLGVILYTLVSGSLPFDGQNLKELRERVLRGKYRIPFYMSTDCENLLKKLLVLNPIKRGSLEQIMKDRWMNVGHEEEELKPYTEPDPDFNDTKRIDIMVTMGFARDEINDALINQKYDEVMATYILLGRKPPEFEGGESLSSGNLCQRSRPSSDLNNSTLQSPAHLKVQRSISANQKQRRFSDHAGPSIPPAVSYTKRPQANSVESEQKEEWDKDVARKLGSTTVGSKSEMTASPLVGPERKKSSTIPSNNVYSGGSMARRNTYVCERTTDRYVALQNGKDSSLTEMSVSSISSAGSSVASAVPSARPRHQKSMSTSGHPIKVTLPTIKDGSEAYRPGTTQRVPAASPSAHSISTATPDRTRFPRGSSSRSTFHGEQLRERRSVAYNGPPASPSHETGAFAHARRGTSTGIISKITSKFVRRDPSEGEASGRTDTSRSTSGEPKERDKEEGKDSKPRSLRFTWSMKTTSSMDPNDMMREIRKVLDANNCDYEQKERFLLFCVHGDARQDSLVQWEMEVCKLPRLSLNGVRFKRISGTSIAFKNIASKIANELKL
Sequence of PHKG2 (P15735 whole entry): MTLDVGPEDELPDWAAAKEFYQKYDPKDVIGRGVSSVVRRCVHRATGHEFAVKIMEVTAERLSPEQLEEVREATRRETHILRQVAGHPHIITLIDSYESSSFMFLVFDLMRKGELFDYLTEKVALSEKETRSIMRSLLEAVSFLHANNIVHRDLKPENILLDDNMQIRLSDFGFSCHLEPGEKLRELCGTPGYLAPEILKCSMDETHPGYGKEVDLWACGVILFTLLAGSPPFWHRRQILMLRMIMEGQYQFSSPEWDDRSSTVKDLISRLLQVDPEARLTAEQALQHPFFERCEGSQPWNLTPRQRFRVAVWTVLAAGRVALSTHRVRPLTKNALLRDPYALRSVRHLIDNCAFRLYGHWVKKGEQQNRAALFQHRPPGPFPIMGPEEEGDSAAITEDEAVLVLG
Sequence of AURKB (Aurora B) (Q96GD4 whole entry): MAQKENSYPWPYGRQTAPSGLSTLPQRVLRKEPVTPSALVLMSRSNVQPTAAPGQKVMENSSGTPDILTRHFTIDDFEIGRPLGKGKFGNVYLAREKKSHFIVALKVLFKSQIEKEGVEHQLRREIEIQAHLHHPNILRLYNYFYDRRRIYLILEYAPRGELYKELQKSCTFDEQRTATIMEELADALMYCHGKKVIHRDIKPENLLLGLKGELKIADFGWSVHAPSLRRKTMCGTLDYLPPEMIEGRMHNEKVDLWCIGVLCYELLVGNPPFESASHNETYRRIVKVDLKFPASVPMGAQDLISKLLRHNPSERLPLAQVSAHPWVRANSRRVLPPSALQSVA

The EC50 is the concentration that produces a half-maximal response. Higher therefore signals weaker potency. Usually inhibition stands for the change of the read-out against control, counted positive when it falls. For `C=CC(=O)Nc1cccc(-c2n[nH]c3ccccc23)c1` [GO32], the response in the test with p-cJun in HEK293 cells was half-maximal at 2260 nM (EC50). Besides, the inhibition at 1 µM on ABL1 was 2%; against AKT1 (PKB alpha), -5%; on AURKB (Aurora B), 79%; at CHEK1 (CHK1) it was 10%; against CSNK1G2 (CK1 gamma 2) it was 3%; at CSNK2A1 (CK2 alpha 1), 0%. In addition, the inhibition at 1 µM at DYRK3 was 11%; at IKBKB (IKK beta), -3%; against JAK3 it was 89%; at KDR (VEGFR2), 4%; at LRRK2 FL, 91%; against MAP2K4 (MEK4) it was 79%. Further, the inhibition at 1 µM at MAP3K8 (COT) was -7%; on MAPKAPK2 it was 2%; against MARK1 (MARK), 14%; at PDGFRB (PDGFR beta), -3%; against PHKG2, 1%; against PRKACA (PKA), -8%. The inhibition at 1 µM was 2% against RPS6KA3 (RSK2), 19% on SYK and 12% on TAOK2 (TAO1).

On to `C=CC(=O)Nc1cccc(-c2n[nH]c3cc(C)ccc23)c1` [GO80], for which a half-maximal effect with p-cJun in HEK293 cells (EC50) was put at 1670 nM. Further, the inhibition at 1 µM on ABL1 is 1%; at AKT1 (PKB alpha) it was -4%; against AURKB (Aurora B), 77%; at CHEK1 (CHK1), 2%; on CSNK1G2 (CK1 gamma 2) it was -13%; against CSNK2A1 (CK2 alpha 1), -2%. In addition, the inhibition at 1 µM against DYRK3 was 22%; on IKBKB (IKK beta), -5%; at JAK3, 64%; against KDR (VEGFR2) it was 6%; against LRRK2 FL, 86%; at MAP2K4 (MEK4), 81%. In addition, the inhibition at 1 µM against MAP3K8 (COT) is -12%; at MAPKAPK2, 1%; on MARK1 (MARK) it was 4%; on PDGFRB (PDGFR beta) it was -13%; at PHKG2, 7%; against PRKACA (PKA), -10%. The figures for the inhibition at 1 µM at RPS6KA3 (RSK2), against SYK and against TAOK2 (TAO1) were -1%, 17% and 14%, respectively.
